# From ChEMBL document CHEMBL1221210, “A Cdc7 kinase inhibitor restricts initiation of DNA replication and has antitumor activity” (Nat Chem Biol, 2008)
# What was measured:
# PC-3 [1] = test: Induction of cell cycle arrest in human PC3 cells expressing p53 gene assessed as accumulation at subG1 phase at 100 uM after 24hrs by FACS analysis; type: functional
# NHDF [2] = test: Induction of cell cycle arrest in NHDF expressing p53 gene assessed as accumulation at subG1 phase at 100 uM after 24hrs by FACS analysis; type: cell-based; conditions: human
# SF-268 [3] = test: Antiproliferative activity against p53 deficient human SF268 cells after 72 hrs; type: functional, cell-based; conditions: SF-268, 72 h
# K562 [4] = test: Antiproliferative activity against p53 deficient human K562 cells after 72 hrs; type: functional, cell-based; conditions: K562, 72 h
# HeLa [5] = test: Antiproliferative activity against p53 deficient human HeLa cells after 72 hrs; type: functional, cell-based
# SW480 [6] = test: Antiproliferative activity against p53 deficient human SW480 cells after 72 hrs by proliferative assay; type: functional, cell-based; conditions: SW480, 72 h
# COLO 205 [7] = test: Antiproliferative activity against p53 deficient human COLO205 cells after 72 hrs; type: functional, cell-based; conditions: COLO 205, 72 h
# [8] = Antiproliferative activity against p53 deficient human HCT116/E6 cells after 72 hrs by proliferative assay; type: functional, cell-based; conditions: HCT116-E6, 72 h
# Jurkat [9] = test: Antiproliferative activity against p53 deficient human Jurkat cells after 72 hrs by proliferative assay; type: functional, cell-based
# [10] = Antiproliferative activity against p53 deficient human A2780/E6 cells after 72 hrs by proliferative assay; type: functional, cell-based; conditions: A2780/E6, 72 h
# OVCAR-8 [11] = test: Antiproliferative activity against p53 deficient human OVCAR8 cells after 72 hrs by proliferative assay; type: functional, cell-based; conditions: OVCAR-8, 72 h
# MCF7 [12] = test: Antiproliferative activity against human MCF7 cells expressing p53 gene after 72 hrs by proliferative assay; type: functional, cell-based; conditions: MCF7, 72 h
# HCT-116 [13] = test: Antiproliferative activity against human HCT116 cells expressing p53 gene after 72 hrs by proliferative assay; type: functional, cell-based; conditions: HCT-116, 72 h
# HCT-15 [14] = test: Antiproliferative activity against human HCT15 cells expressing p53 gene after 72 hrs by proliferative assay; type: functional, cell-based; conditions: HCT-15, 72 h
# SF-539 [15] = test: Antiproliferative activity against human SF539 cells expressing p53 gene after 72 hrs by proliferative assay; type: functional, cell-based; conditions: SF-539, 72 h
# U2OS [16] = test: Antiproliferative activity against human U2OS cells expressing p53 gene after 72 hrs by proliferative assay; type: functional, cell-based
# A2780 [17] = test: Antiproliferative activity against human A2780 cells expressing p53 gene after 72 hrs by proliferative assay; type: functional, cell-based; conditions: A2780, 72 h
# PC-3 [18] = test: Antiproliferative activity against human PC3 cells expressing p53 gene after 72 hrs by proliferative assay; type: functional, cell-based; conditions: PC-3, 72 h
# NHDF [19] = test: Antiproliferative activity against NHDF expressing p53 gene after 72 hrs by proliferative assay; type: cell-based; conditions: Homo sapiens
# SF-268 [20] = test: Induction of cell cycle arrest in p53 deficient human SF268 cells assessed as accumulation at subG1 phase at 100 uM after 24 hrs FACS analysis; type: functional
# K562 [21] = test: Induction of cell cycle arrest in p53 deficient human K562 cells assessed as accumulation at subG1 phase at 100 uM after 24hrs by FACS analysis; type: functional
# HeLa [22] = test: Induction of cell cycle arrest in p53 deficient human HeLa cells assessed as assessed as accumulation at subG1 phase at 100 uM after 24hrs by FACS analysis; type: functional
# SW480 [23] = test: Induction of cell cycle arrest in p53 deficient human SW480 cells assessed as accumulation at subG1 phase at 100 uM after 24hrs by FACS analysis; type: functional
# COLO 205 [24] = test: Induction of cell cycle arrest in p53 deficient human COLO205 cells assessed as accumulation at subG1 phase at 100 uM after 24hrs by FACS analysis; type: functional
# [25] = Induction of cell cycle arrest in p53 deficient human HCT116-E6 cells assessed as accumulation at subG1 phase at 100 uM after 24hrs by FACS analysis; type: functional
# Jurkat [26] = test: Induction of cell cycle arrest in p53 deficient human Jurkat cells assessed as accumulation at subG1 phase at 100 uM after 24hrs by FACS analysis; type: functional
# [27] = Induction of cell cycle arrest in p53 deficient human A2780/E6 cells as accumulation at subG1 phase at 100 uM after 24hrs by FACS analysis; type: functional
# OVCAR-8 [28] = test: Induction of cell cycle arrest in p53 deficient human OVCAR8 cells assessed as accumulation at subG1 phase at 100 uM after 24hrs by FACS analysis; type: functional
# MCF7 [29] = test: Induction of cell cycle arrest in human MCF7 cells expressing p53 gene assessed as accumulation at subG1 phase at 100 uM after 24hrs by FACS analysis; type: functional
# HCT-116 [30] = test: Induction of cell cycle arrest in human HCT116 cells expressing p53 gene assessed as accumulation at subG1 phase at 100 uM after 24hrs by FACS analysis; type: functional
# HCT-15 [31] = test: Induction of cell cycle arrest in human HCT15 cells expressing p53 gene assessed as accumulation at subG1 phase at 100 uM after 24hrs by FACS analysis; type: functional
# SF-539 [32] = test: Induction of cell cycle arrest in human SF539 cells expressing p53 gene assessed as accumulation at subG1 phase at 100 uM after 24hrs by FACS analysis; type: functional
# U2OS [33] = test: Induction of cell cycle arrest in human U2OS cells expressing p53 gene assessed as accumulation at subG1 phase at 100 uM after 24hrs by FACS analysis; type: functional
# A2780 [34] = test: Induction of cell cycle arrest in human A2780 cells expressing p53 gene assessed as accumulation at subG1 phase at 100 uM after 24hrs by FACS analysis; type: functional
smiles,measurement,setting,value
O=c1[nH]cc(F)c(=O)[nH]1 [FLUOROURACIL],Activity,PC-3 [1],<3%
same,Activity,NHDF [2],< 3%
same,IC50,SF-268 [3],88 µM
same,IC50,K562 [4],> 100 µM
same,IC50,HeLa [5],> 100 µM
same,IC50,SW480 [6],26.3 µM
same,IC50,COLO 205 [7],11.6 µM
same,IC50,[8],28.9 µM
same,IC50,Jurkat [9],87.7 µM
same,IC50,[10],38.7 µM
same,IC50,OVCAR-8 [11],96.4 µM
same,IC50,MCF7 [12],26.7 µM
same,IC50,HCT-116 [13],6.36 µM
same,IC50,HCT-15 [14],18.2 µM
same,IC50,SF-539 [15],50.1 µM
same,IC50,U2OS [16],13.2 µM
same,IC50,A2780 [17],7.21 µM
same,IC50,PC-3 [18],13.8 µM
same,IC50,NHDF [19],14.7 µM
same,Activity,SF-268 [20],<3%
same,Activity,K562 [21],<3%
same,Activity,HeLa [22],<3%
same,Activity,SW480 [23],<3%
same,Activity,COLO 205 [24],<3%
same,Activity,[25],<3%
same,Activity,Jurkat [26],<3%
same,Activity,[27],<3%
same,Activity,OVCAR-8 [28],<3%
same,Activity,MCF7 [29],<3%
same,Activity,HCT-116 [30],10%
same,Activity,HCT-15 [31],<3%
same,Activity,SF-539 [32],<3%
same,Activity,U2OS [33],<3%
same,Activity,A2780 [34],<3%
